Results: ChEMBL document CHEMBL1649440, “Impact of sarA on antibiotic susceptibility of Staphylococcus aureus in a catheter-associated in vitro model of biofilm formation” (2009)
≈ marks a conversion by molar mass, not a printed value.

Experiments:
[1] = system: Staphylococcus aureus; assay: Antimicrobial activity against Staphylococcus aureus isolate UAMS-1 by Etest method; assay type: functional
[2] = system: Staphylococcus aureus; assay: Antimicrobial activity against Staphylococcus aureus isolate UAMS-929 harboring sarA gene mutant by Etest method; assay type: functional

CCCCCCCCCC(=O)N[C@@H](Cc1c[nH]c2ccccc12)C(=O)N[C@H](CC(N)=O)C(=O)N[C@@H](CC(=O)O)C(=O)N[C@@H]1C(=O)NCC(=O)N[C@@H](CCCN)C(=O)N[C@@H](CC(=O)O)C(=O)N[C@H](C)C(=O)N[C@@H](CC(=O)O)C(=O)NCC(=O)N[C@H](CO)C(=O)N[C@@H]([C@H](C)CC(=O)O)C(=O)N[C@@H](CC(=O)c2ccccc2N)C(=O)O[C@@H]1C
MIC [1]: 0.75 µg/mL (≈ 0.463 µM)
MIC [2]: 0.75 µg/mL (≈ 0.463 µM)

CC(=O)NC[C@H]1CN(c2ccc(N3CCOCC3)c(F)c2)C(=O)O1 [LINEZOLID]
MIC [1]: 1 µg/mL (≈ 2.96 µM)
MIC [2]: 1 µg/mL (≈ 2.96 µM)

CN[C@H](CC(C)C)C(=O)N[C@H]1C(=O)N[C@@H](CC(N)=O)C(=O)N[C@H]2C(=O)N[C@H]3C(=O)N[C@H](C(=O)N[C@H](C(=O)O)c4cc(O)cc(O)c4-c4cc3ccc4O)[C@H](O)c3ccc(c(Cl)c3)Oc3cc2cc(c3O[C@@H]2O[C@H](CO)[C@@H](O)[C@H](O)[C@H]2O[C@H]2C[C@](C)(N)[C@H](O)[C@H](C)O2)Oc2ccc(cc2Cl)[C@H]1O [VANCOMYCIN]
MIC [1]: 1.5 µg/mL (≈ 1.04 µM)
MIC [2]: 1.5 µg/mL (≈ 1.04 µM)
